From ChEMBL document CHEMBL6109134, “Discovery of AMG 193, an MTA-Cooperative PRMT5 Inhibitor for the Treatment of MTAP-Deleted Cancers” (J Med Chem, 2025)

Legend:
[1] = biological target: CYP3A4 (Homo sapiens, UniProt P08684); assay: in vitro; settings: human liver microsomes, probe midazolam
[2] = biological target: T1, Nuclear receptor subfamily 1 group I member 2 (Homo sapiens, UniProt O75469); assay: Activation of human PXR in human HepG2 cells co-transfected with CYP3A4-luciferase at 10 uM incubated for 1 day relative to control; settings: hepg2, 24 h
T1 sequence (O75469 whole entry): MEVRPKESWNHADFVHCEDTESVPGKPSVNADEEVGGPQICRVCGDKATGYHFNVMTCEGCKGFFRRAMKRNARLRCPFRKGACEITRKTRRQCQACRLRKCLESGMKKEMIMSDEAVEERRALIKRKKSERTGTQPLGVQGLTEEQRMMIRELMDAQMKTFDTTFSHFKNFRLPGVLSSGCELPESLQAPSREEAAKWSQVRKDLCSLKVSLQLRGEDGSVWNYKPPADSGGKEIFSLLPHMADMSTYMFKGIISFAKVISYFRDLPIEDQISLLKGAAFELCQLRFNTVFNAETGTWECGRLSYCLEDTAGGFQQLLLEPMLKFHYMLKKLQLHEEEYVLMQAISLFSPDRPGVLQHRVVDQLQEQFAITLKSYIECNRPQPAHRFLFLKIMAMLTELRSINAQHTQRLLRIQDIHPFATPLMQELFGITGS

[3] = tested on: HCT-116; assay: Antiproliferative activity against human HCT-116 cells harboring wildtype MTAP assessed as effect on cell viability incubated for 6 days by Celltiter-Glo luminescent cell viability assay; assay type: functional, cell-based; settings: HCT-116, 144 h
[4] = tested on: HCT-116; assay: Antiproliferative activity against MTAP-deleted human HCT-116 cells assessed as effect on cell viability incubated for 6 days by Celltiter-Glo luminescent cell viability assay; assay type: functional, cell-based; settings: HCT-116, 144 h
[5] = biological target: PRMT5/MEP50 complex (Homo sapiens, UniProt O14744)
Sequence of PRMT5/MEP50 complex (O14744 whole entry): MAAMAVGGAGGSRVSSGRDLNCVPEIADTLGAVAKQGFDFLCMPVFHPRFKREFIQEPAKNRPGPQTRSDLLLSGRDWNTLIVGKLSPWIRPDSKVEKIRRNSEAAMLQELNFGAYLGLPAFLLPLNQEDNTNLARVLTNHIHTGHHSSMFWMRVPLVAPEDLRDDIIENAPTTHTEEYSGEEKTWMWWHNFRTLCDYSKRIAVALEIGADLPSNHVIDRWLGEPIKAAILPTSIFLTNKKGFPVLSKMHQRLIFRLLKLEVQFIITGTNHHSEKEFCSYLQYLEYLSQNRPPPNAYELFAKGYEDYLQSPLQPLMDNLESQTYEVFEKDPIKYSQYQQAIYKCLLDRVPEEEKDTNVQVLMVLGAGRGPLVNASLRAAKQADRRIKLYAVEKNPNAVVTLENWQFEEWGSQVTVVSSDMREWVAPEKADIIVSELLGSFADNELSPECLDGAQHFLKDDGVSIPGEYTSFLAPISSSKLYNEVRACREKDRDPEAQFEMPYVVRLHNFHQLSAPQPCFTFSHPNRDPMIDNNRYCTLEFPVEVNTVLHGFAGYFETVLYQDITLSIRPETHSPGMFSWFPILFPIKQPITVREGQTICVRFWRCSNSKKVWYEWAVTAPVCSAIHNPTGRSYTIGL
Sequence of PRMT5/MEP50 complex (Q9BQA1 whole entry, further chain): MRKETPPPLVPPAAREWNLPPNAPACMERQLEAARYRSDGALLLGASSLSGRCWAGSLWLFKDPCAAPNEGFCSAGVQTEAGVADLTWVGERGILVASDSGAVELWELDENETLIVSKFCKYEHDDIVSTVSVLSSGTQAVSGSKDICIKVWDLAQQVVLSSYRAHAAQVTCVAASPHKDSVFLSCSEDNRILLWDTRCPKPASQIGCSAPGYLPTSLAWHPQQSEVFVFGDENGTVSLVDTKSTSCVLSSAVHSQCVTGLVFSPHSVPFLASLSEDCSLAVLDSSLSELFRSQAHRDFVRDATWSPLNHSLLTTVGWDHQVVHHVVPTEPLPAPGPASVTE
Description: Inhibition of PRMT5/MEP50 (unknown origin) preincubated with compound for 24 hrs in presence of SAM and MTA followed by Histone H4 (1-21)-Lys(Biotin) peptide addition and measured after 2 hrs by MTase-Glo reagent based assay

[6] = tested on: human MDR1 (P-gp); assay: Efflux ratio of permeability across basolateral to apical side over apical to basolateral side in MDCK cells transfected with human MDR1 in absence of elacridar; settings: dog
[7] = Metabolic stability in mouse liver microsomes assessed as intrinsic clearance at 0.5 uM incubated for 40 mins in presence of NADPH; assay type: ADME, Microsome; settings: read-out: CLH
[8] = Metabolic stability in human liver microsomes assessed as intrinsic clearance at 0.5 uM incubated for 40 mins in presence of NADPH; assay type: ADME, Microsome; settings: read-out: CLH
[9] = Clearance in CD-1 mouse at 1 mg/kg, iv; settings: in vivo
[10] = in vivo; settings: CD-1, mouse, iv, 1 mg/kg
[11] = Protein binding in mouse plasma assessed as unbound fraction by ultracentrifugation; settings: mouse plasma
[12] = Half-life in CD-1 mouse at 1 mg/kg, iv; assay type: ADME, organism-based; settings: in vivo
[13] = Unbound clearance in CD-1 mouse at 1 mg/kg, iv; assay type: ADME, organism-based; settings: in vivo
[14] = Oral bioavailability in CD-1 mouse at 5 mg/kg administered as 1% Tween 80, 2% HPMC, 97% water/methane sulfonic acid, pH 2.0 formulation; assay type: ADME, organism-based; settings: in vivo

Sequence of CYP3A4 (P08684 whole entry): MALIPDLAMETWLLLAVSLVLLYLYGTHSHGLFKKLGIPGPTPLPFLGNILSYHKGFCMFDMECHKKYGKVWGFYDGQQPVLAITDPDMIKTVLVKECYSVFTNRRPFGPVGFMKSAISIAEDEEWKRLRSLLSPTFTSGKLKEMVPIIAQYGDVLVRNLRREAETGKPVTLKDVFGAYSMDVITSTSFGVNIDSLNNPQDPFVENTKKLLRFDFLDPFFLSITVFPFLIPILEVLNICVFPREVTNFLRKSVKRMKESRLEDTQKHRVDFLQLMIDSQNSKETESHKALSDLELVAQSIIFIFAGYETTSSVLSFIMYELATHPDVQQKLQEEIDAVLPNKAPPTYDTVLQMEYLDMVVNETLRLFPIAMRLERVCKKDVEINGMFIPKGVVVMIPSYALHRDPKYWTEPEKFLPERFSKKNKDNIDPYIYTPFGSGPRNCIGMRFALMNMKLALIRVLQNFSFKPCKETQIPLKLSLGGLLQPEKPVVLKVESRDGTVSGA

Row | Structure (SMILES) | inhibition at 30 min, 10 µM [1] [%] | Activity [2] [%] | IC50 [3] [nM] | IC50 [4] [nM] | Ki [5] [nM] | efflux ratio [6] | microsomal CLint at 0.5 µM [7] [µL/min/mg] | microsomal CLint at 0.5 µM [8] [µL/min/mg] | clearance [9] [mL/min/kg] | Vd [10] [L/kg] | fraction unbound [11] | half-life [12] [h] | CL free [13] [mL/min/kg] | bioavailability [14] [%]
1 | Nc1nc2ccc(C(=O)N3CCOC[C@@H]3c3ccc(Cl)cc3)cc2c2c1COC2 | < 20 | < 20 | 8270 | 399 | < 0.1 | 8 | 121 | 42 | – | – | – | – | – | –
2 | C[C@H]1OCc2c1c(N)nc1cnc(C(=O)N3CCOC[C@@H]3c3ccc(C(F)(F)F)cc3)cc21 | < 20 | 80 | 2460 | 64 | < 0.1 | 7 | 51 | 26 | 13.3 | 1.8 | 0.09 | 1.6 | 147 | 82
3 | Nc1nc2cnc(C(=O)N3CCCC[C@@H]3c3ccc(C(F)(F)F)cc3)cc2c2c1COC2 | < 20 | < 20 | 2090 | 112 | < 0.1 | 4 | 102 | 74 | – | – | – | – | – | –
4 | CC(=O)N1CCC(Nc2cc(C(=O)NC[C@H](O)CN3CCc4ccccc4C3)ncn2)CC1 [PEMRAMETOSTAT] | – | – | 68 | 74 | – | – | – | – | – | – | – | – | – | –
5 | Nc1nc2ccc(C(=O)N3CCOCC3c3ccc(C(F)(F)F)cn3)cc2c2c1COC2 (racemic) | < 20 | < 20 | 14300 | 809 | 0.1 | – | 45 | 37 | – | – | – | – | – | –
6 | Cc1cc2cc(C(=O)N(Cc3ccc(C(F)(F)F)cn3)[C@H](C)c3ncccn3)ncc2nc1N | 31 | 11 | 7950 | 404 | 0.1 | 29 | 46 | 14 | – | – | – | – | – | –
7 | C[C@H](c1ncccn1)N(Cc1ccc(C(F)(F)F)cn1)C(=O)c1cc2c3c(c(N)nc2cc1F)COC3 | ≤ 10 | 50 | 26 | 10 | < 0.1 | 31 | 624 | 262 | – | – | – | – | – | –
8 | C[C@H](c1ncccn1)N(Cc1ccc(C(F)(F)F)cn1)C(=O)c1ccc2nc(N)ccc2c1 | 21 | 17 | 743 | 482 | 0.6 | 15 | 62 | < 14 | – | – | – | – | – | –
9 | Nc1nc2ccc(C(=O)N3CCOC[C@H]3c3ccc(C(F)(F)F)cn3)cc2c2c1COC2 | < 20 | < 20 | > 50000 | 15500 | 182 | – | 52 | 61 | – | – | – | – | – | –
10 | Nc1nc2ncc(C(=O)N3CCOCC3c3ccc(C(F)(F)F)cc3)cc2c2c1COC2 (stereo unspecified) | < 20 | < 20 | > 10000 | 4440 | 10.4 | 69 | 26 | 17 | – | – | – | – | – | –
11 | C[C@H](c1ncccn1)N(Cc1ccc(C(F)(F)F)cn1)C(=O)c1ccc2nc(N)c3c(c2c1)CCC3 | 8 | 73 | 129 | 14 | < 0.1 | 85 | 563 | 274 | – | – | – | – | – | –
12 | C[C@@H]1OCc2c1c(N)nc1cnc(C(=O)N3CCOC[C@@H]3c3ccc(C(F)(F)F)cc3)cc21 | < 20 | < 20 | > 50000 | 4600 | 1.1 | 7 | 64 | 49 | – | – | – | – | – | –
13 | C[C@H](c1ncccn1)N(Cc1ccc(C(F)(F)F)cn1)C(=O)c1cnc2nc(N)c3c(c2c1)COC3 | < 1 | 1 | 409 | 83 | < 0.1 | – | 17 | 22 | – | – | – | – | – | –
14 | C[C@H](c1ncccn1)N(Cc1ccc(C(F)(F)F)cn1)C(=O)c1ccc2nc(N)c(Cl)cc2c1 | 25 | 46 | 5110 | 344 | 0.2 | 9 | 105 | < 14 | – | – | – | – | – | –
15 | Cc1cc2cc(C(=O)N(Cc3ccc(C(F)(F)F)cn3)[C@H](C)c3ncccn3)cnc2nc1N | 70 | 6 | 3490 | 273 | 0.1 | 63 | 14 | 14 | – | – | – | – | – | –
16 | Nc1nc2cnc(C(=O)N3CCC(F)(F)C[C@@H]3c3ccc(C(F)(F)F)cc3)cc2c2c1COC2 | < 20 | < 20 | 16100 | 1090 | 0.4 | 5 | 87 | 50 | – | – | – | – | – | –
17 | Nc1nc2ccc(C(=O)N3CCCC3c3ccc(C(F)(F)F)cn3)cc2c2c1COC2 (stereo unspecified) | < 20 | < 20 | > 50000 | > 50000 | 184 | – | 72 | 57 | – | – | – | – | – | –
18 | Cc1cc2cc(C(=O)N(Cc3ccc(C(F)(F)F)cn3)CC(C)C)ccc2nc1N | 52 | 22 | 6090 | 431 | – | – | 148 | 32 | – | – | – | – | – | –
19 | C[C@H](c1ncccn1)N(Cc1ccc(C(F)(F)F)cn1)C(=O)c1cc2c3c(c(N)nc2cn1)COC3 | 4 | 9 | 1860 | 202 | 0.1 | 61 | 154 | 67 | – | – | – | – | – | –
